Measurements taken from article PMC9394474 (Viruses, 2022).
“And” between values parts separate entries of the source, which are not always exact repeats. Equal values may be shown once. Read-outs that look alike come from different tables or passages of the source. Ends that are not written are not given here. Peptide text beside a SMILES is read from it.

Target: human hisTRIM7-PRYSPRY (Homo sapiens, UniProt Q9C029)
Assay: ITC binding to human TRIM7 PRYSPRY (wild type)

Row | Molecule | Kd | Kd (KD, ITC, one-site model, 15 °C, 50 mM phosphate pH 6.5, 1 mM DTT, TRIM7 500 µM, ligand 100 µM (peptide 50 µM), representative trace and fit) [µM]
1 | CC(C)C[C@H](N)C(=O)N[C@@H](CCC(N)=O)C(=O)O [LQ] (H-Leu-Gln-OH) | 201 ± 30 µM | –
2 | AIEALFQ [AIEALFQ] | 17 ± 4.3 µM | –
3 | DNIKKKLDTYLQ [rbGYG322-333] | – | 21 ± 1.8
4 | AAAAALQ [polyA-LQ] | 8.92 µM and 8 µM | –
5 | CC(=O)N[C@@H](CC(C)C)C(=O)N[C@@H](CC(C)C)C(=O)N[C@@H](CCC(N)=O)C(=O)O [Ac-LLQ] (Ac-Leu-Leu-Gln-OH) | 38.7 ± 5.16 µM | –
